Measurements reported in patent US20250032524A1, “BROAD SPECTRUM AMINOGLYCOSIDES AND USES THEREOF” (REVAGENIX, INC., priority 2022, published 2025).
Like-named read-outs stand apart in the source and are kept apart here.

Assays:
Assay type in all cases: cell-based
[1] = system: clinical isolates of multi-drug resistant bacterial pathogens including A. baumannii, MRSA, P. aeruginosa, and CRE; assay: MIC secondary panel, overall statement; settings: read-out: minimum inhibitory concentration (MIC) values
Experimental: (§1) Minimum inhibitory concentrations for representative example compounds herein were determined by a broth microdilution method in accordance with the Clinical and Laboratory Standards Institute (CLSI) guidelines. In brief, organism suspensions were adjusted to a 0.5 McFarland standard to yield a final inoculum between 3×10^5 and 7×10^5 colony-forming units (CFU)/mL. The inoculum was prepared by suspension of a colony from an agar plate that was prepared the previous day. Compound dilutions and inoculum were prepared in sterile, cation adjusted Mueller-Hinton Broth (Beckton Dickinson).
(§2) Bacteria were suspended in sterile saline and added to each assay plate to obtain a final concentration of 5×10^5 CFU/mL. An inoculum volume of 100 μL was added to wells containing 100 μL of broth with 2-fold serial dilutions of the test compound. All inoculated microdilution trays were incubated in ambient air at 35° C. for 18-24 hours. Following incubation, the lowest concentration of the compound that prevented visible growth (OD 600 nm<0.05) is recorded was the MIC. […] Performance of the assay was monitored by the use of laboratory quality-control strains and a standard compound with a defined MIC spectrum (neomycin), in accordance with CLSI guidelines.
Several compounds of the disclosure (Compounds 1, 2, 3, and 6) were further evaluated against a secondary panel of clinical isolates of multi-drug resistant bacterial pathogens including A. baumannii, methicillin-resistant Staphylococcus aureus (MRSA), P. aeruginosa, and carbapenem-resistant Enterobacteriaceae (CRE).

[2] = system: K. aerogenes; assay: MIC broth microdilution (CLSI); settings: Klebsiella aerogenes; strain AEAE1042, MDR Clinical isolate (CDC CRE panel), CDC AR Bank 0161
Procedure, shortened: (§3)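 Susceptibility was measured by microdilution in cation-adjusted Mueller-Hinton broth following CLSI guidance, with bacteria at 5×10^5 CFU/mL and incubation at 35° C. for 18-24 hours. Growth inhibition was scored visually, using an OD 600 nm<0.05 cut-off.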

[3] = system: A. baumannii; assay: MIC broth microdilution (CLSI); settings: Acinetobacter baumannii
Procedure, shortened: as §3

[4] = system: P. aeruginosa; assay: MIC broth microdilution (CLSI); settings: Pseudomonas aeruginosa
Procedure, shortened: as §3

[5] = system: E. coli; assay: MIC broth microdilution (CLSI); settings: Escherichia coli
Procedure, shortened: as §3

[6] = system: P. mirabilis; assay: MIC broth microdilution (CLSI); settings: Proteus mirabilis; strain APMI1048, MDR Clinical isolate (CDC CRE panel), CDC AR Bank 0159
Procedure, shortened: as §3

[7] = system: S. enterica; assay: MIC broth microdilution (CLSI); settings: Salmonella enterica, read-out: Activity (MIC)
Procedure, shortened: as §3

[8] = system: all sets of organisms tested (SENTRY clinical isolates); assay: Antibacterial surveillance, overall statement; settings: all sets of organisms tested (Table 3); read-out: MIC50,90 values
Experimental: as §1, §2
Several compounds of the disclosure (Compound 1, 2, and 3) were further evaluated against several hundred bacterial isolates (isolated in the United States and Europe, 1:1) selected from the SENTRY Antimicrobial Surveillance Program (JMI Laboratories, North Liberty, Iowa). The set of clinical isolates included 300 randomly selected Enterobacterales, 103 randomly selected P. aeruginosa, 100 randomly selected A. baumannii-calcoaceticus, 20 randomly selected Methicillin-sensitive S. aureus (MSSA), and 30 randomly selected Methicillin-resistant S. aureus (MRSA). In addition, 101 Enterobacterales and 50 P. aeruginosa isolates with genetically defined mechanisms of aminoglycoside resistance were included. […]

[9] = system: A. baumannii-calcoaceticus; assay: Antibacterial surveillance of clinical isolates (MIC50/90); settings: 100 isolates
Experimental: as §1, §2
(§4) Several compounds of the disclosure (Compound 1, 2, and 3) were further evaluated against several hundred bacterial isolates (isolated in the United States and Europe, 1:1) selected from the SENTRY Antimicrobial Surveillance Program (JMI Laboratories, North Liberty, Iowa). The set of clinical isolates included 300 randomly selected Enterobacterales, 103 randomly selected P. aeruginosa, 100 randomly selected A. baumannii-calcoaceticus, 20 randomly selected Methicillin-sensitive S. aureus (MSSA), and 30 randomly selected Methicillin-resistant S. aureus (MRSA). In addition, 101 Enterobacterales and 50 P. aeruginosa isolates with genetically defined mechanisms of aminoglycoside resistance were included. The MIC values at which ≥50% (MIC50) and ≥90% (MIC90) of isolates within a given set are inhibited were determined for each compound against each set of organisms.

[10] = system: Enterobacterales; assay: as above
Experimental: as §1, §2, §4

[11] = system: P. aeruginosa; assay: as above; settings: Pseudomonas aeruginosa, 103 isolates
Experimental: as §1, §2, §4

[12] = system: AG-resistant Enterobacterales; assay: as above
Experimental: as §1, §2, §4

[13] = system: AG-resistant P. aeruginosa; assay: as above; settings: Pseudomonas aeruginosa, 50 isolates with defined aminoglycoside resistance
Experimental: as §1, §2, §4

[14] = system: Methicillin-sensitive S. aureus (MSSA); assay: as above; settings: Staphylococcus aureus, MSSA, 20 isolates
Experimental: as §1, §2, §4

[15] = system: Methicillin-resistant S. aureus (MRSA); assay: as above; settings: Staphylococcus aureus, MRSA, 30 isolates
Experimental: as §1, §2, §4

NC[C@@H]1CC[C@@H](N)[C@@H](O[C@@H]2[C@@H](N)[C@H](O)[C@@H](NC(=O)[C@@H](O)[C@H](F)CN)[C@H](O)[C@H]2O[C@@H]2O[C@H](CO)[C@@H](O[C@H]3O[C@@H](CN)[C@@H](O)[C@H](O)[C@H]3N)[C@H]2O)O1 [Compound 1, (2R,3R)-4-amino-N-((1R,2S,3S,4R,5R,6S)-3-amino-5-(((2S,3R,4S,5R)-4-(((2R,3R,4R,5S,6S)-3-amino-6-(aminomethyl)-4,5-dihydroxytetrahydro-2H-pyran-2-yl)oxy)-3-hydroxy-5-(hydroxymethyl)tetrahydrofuran-2-yl)oxy)-4-(((2R,3R,6S)-3-amino-6-(aminomethyl)tetrahydro-2H-pyran-2-yl)oxy)-2,6-dihydroxycyclohexyl)-3-fluoro-2-hydroxybutanamide]
MIC [1]: ≤ 16 µg/mL
MIC [2]: < 16 µg/mL
MIC ([3]; read-out: Activity (MIC), strain NABA0007, ΔadeJK efflux): < 16 µg/mL
MIC ([3]; read-out: Activity (MIC), strain NABA1427, MDR Clinical isolate): < 16 µg/mL
MIC ([3]; read-out: Activity (MIC), strain NABA1433, MDR Clinical isolate): < 16 µg/mL
MIC ([3]; read-out: Activity (MIC), strain NABA1434, MDR Clinical isolate): < 16 µg/mL
MIC ([3]; read-out: Activity (MIC), strain NABA1436, MDR Clinical isolate): < 16 µg/mL
MIC ([3]; read-out: Activity (MIC), strain NABA1437, MDR Clinical isolate): < 16 µg/mL
MIC ([3]; read-out: Activity (MIC), strain NABA1438, MDR Clinical isolate): < 16 µg/mL
MIC ([3]; read-out: Activity (MIC), strain NABA1439, MDR Clinical isolate): < 16 µg/mL
MIC ([3]; read-out: Activity (MIC), strain NABA1448, MDR Clinical isolate): < 16 µg/mL
MIC ([3]; read-out: Activity (MIC), strain NABA1449, MDR Clinical isolate): < 16 µg/mL
MIC ([3]; read-out: Activity (MIC), strain NABA1450, MDR Clinical isolate): < 16 µg/mL
MIC ([3]; strain NABA0006, WT parent, read-out: Activity (MIC)): < 16 µg/mL
MIC ([3]; strain NABA0020, AME negative strain, read-out: Activity (MIC)): < 16 µg/mL
MIC ([4]; read-out: Activity (MIC), strain NPAE0006, Efflux KO, Aph(3')-IIb): < 16 µg/mL
MIC ([4]; read-out: Activity (MIC), strain NPAE0010, MexXY over-expressed, Aph(3')-IIb): < 16 µg/mL
MIC ([4]; read-out: Activity (MIC), strain NPAE1288, MDR Clinical isolate): < 16 µg/mL
MIC ([4]; read-out: Activity (MIC), strain NPAE1293, MDR Clinical isolate): < 16 µg/mL
MIC ([4]; read-out: Activity (MIC), strain NPAE1299, MDR Clinical isolate): < 16 µg/mL
MIC ([4]; read-out: Activity (MIC), strain NPAE1302, MDR Clinical isolate): < 16 µg/mL
MIC ([4]; read-out: Activity (MIC), strain NPAE1303, MDR Clinical isolate): < 16 µg/mL
MIC ([4]; read-out: Activity (MIC), strain NPAE1308, MDR Clinical isolate): < 16 µg/mL
MIC ([4]; read-out: Activity (MIC), strain NPAE1310, MDR Clinical isolate): < 16 µg/mL
MIC ([4]; read-out: Activity (MIC), strain NPAE1313, MDR Clinical isolate): > 16 µg/mL
MIC ([4]; read-out: Activity (MIC), strain NPAE1316, MDR Clinical isolate): < 16 µg/mL
MIC ([4]; read-out: Activity (MIC), strain NPAE1323, MDR Clinical isolate): < 16 µg/mL
MIC ([4]; strain NPAE0001, WT Aph(3')-IIb, QC, read-out: Activity (MIC)): < 16 µg/mL
MIC ([4]; strain NPAE0002, WT Aph(3')-IIb, read-out: Activity (MIC)): < 16 µg/mL
MIC ([4]; strain NPAE0359, aph(3')-IIb KO (tetR), read-out: Activity (MIC)): < 16 µg/mL
MIC ([5]; read-out: Activity (MIC), strain AECO1225, MDR Clinical isolate (CDC CRE panel), CDC AR Bank 0118): < 16 µg/mL
MIC ([5]; read-out: Activity (MIC), strain AECO1226, MDR Clinical isolate (CDC CRE panel), CDC AR Bank 0119): < 16 µg/mL
MIC ([5]; read-out: Activity (MIC), strain AECO1227, MDR Clinical isolate (CDC CRE panel), CDC AR Bank 0128): < 16 µg/mL
MIC ([5]; read-out: Activity (MIC), strain NECO0003, ΔtolC): < 16 µg/mL
MIC ([5]; read-out: Activity (MIC), strain NECO0245, ArmA): < 16 µg/mL
MIC ([5]; strain NECO0001, WT QC, read-out: Activity (MIC)): < 16 µg/mL
MIC ([5]; strain NECO0002, WT, read-out: Activity (MIC)): < 16 µg/mL
MIC ([5]; strain NECO0243, empty vector, read-out: Activity (MIC)): < 16 µg/mL
MIC ([5]; strain NECO0244, AAC(6')-Ib, read-out: Activity (MIC)): < 16 µg/mL
MIC ([5]; strain NECO0289, APH(3')-Ia, read-out: Activity (MIC)): < 16 µg/mL
MIC ([5]; strain NECO0302, AAC(3)-IIa, read-out: Activity (MIC)): < 16 µg/mL
MIC ([5]; strain NECO0350, AAC(2')-I, read-out: Activity (MIC)): < 16 µg/mL
MIC ([5]; strain NECO0359, ANT(4')-Ia, read-out: Activity (MIC)): < 16 µg/mL
MIC [6]: < 16 µg/mL
MIC [7]: < 16 µg/mL
MIC50 [8]: ≤ 16 µg/mL
MIC50 ([9]; read-out: MIC50): < 16 µg/mL
MIC90 ([9]; read-out: MIC90): < 16 µg/mL
MIC50 [10]: < 16 µg/mL
MIC90 [10]: < 16 µg/mL
MIC50 ([11]; read-out: MIC50): < 16 µg/mL
MIC90 ([11]; read-out: MIC90): < 16 µg/mL
MIC50 [12]: < 16 µg/mL
MIC90 [12]: < 16 µg/mL
MIC50 ([13]; read-out: MIC50): < 16 µg/mL
MIC90 ([13]; read-out: MIC90): < 16 µg/mL
MIC50 ([14]; read-out: MIC50): < 16 µg/mL
MIC90 ([14]; read-out: MIC90): < 16 µg/mL
MIC50 ([15]; read-out: MIC50): < 16 µg/mL
MIC90 ([15]; read-out: MIC90): < 16 µg/mL
